Experiments:
[1] = system: LOX IMVI; assay: Growth inhibition of human LOXIMVI cells after 48 hrs by SRB assay; type: functional
[2] = system: NCI-H460; assay: Growth inhibition of human NCI-H460 cells after 48 hrs by SRB assay; type: functional; details: NCI-H460, 48 h
[3] = read-out: LC50 (the source's name)
[4] = read-out: pLC50 (the source's name) (converted)

| SMILES | GI50 ([1]; read-out: GI50) [µM] | CC50 [1, 3] [µM] | TGI ([1]; read-out: TGI) [µM] | GI50 ([1]; read-out: pGI50 (converted)) [µM] | CC50 [1, 4] [µM] | TGI ([1]; read-out: pTGI (converted)) [µM] | GI50 ([2]; read-out: GI50) [µM] | CC50 [2, 3] [µM] | TGI ([2]; read-out: TGI) [µM] | GI50 ([2]; read-out: pGI50 (converted)) [µM] | TGI ([2]; read-out: pTGI (converted)) [µM] |
| --- | --- | --- | --- | --- | --- | --- | --- | --- | --- | --- | --- |
| C=C1[C@@H](OC(C)=O)CC[C@@]2(C)C[C@H](OC(C)=O)C3=C(C)C[C@H](OC(=O)C(C)CC)[C@@H]([C@@H](OC(C)=O)[C@H]12)C3(C)C (stereo partly specified) | 35 | > 100 | > 100 | 34.7 | 100 | 100 | 36 | > 100 | > 100 | 35.5 | 100 |
| C=C1[C@@H](OC(C)=O)CC[C@]2(C)[C@@H]1C[C@@H]1C[C@H](OC(C)=O)C(C)=C([C@@H](O)[C@@H]2OC(=O)/C=C/c2ccccc2)C1(C)C | 38 | 100 | 100 | 38 | 100 | 100 | 44 |  | 100 | 41.7 | 100 |
